Consider 16 compounds from US10975037B2 (priority 2018, dated 2021).

By inhibition is commonly meant the change of the read-out against control, counted positive when it falls. By IC50 is commonly meant the concentration needed to halve the response being measured. As usually defined, the Kd is the concentration at which binding is half-saturated.

Structures are written as SMILES. Where a name gives a salt, the structure may show the parent alone. Read-outs that look alike come from different tables or passages of the source. Marks after values point to notes of the source that are not given here.

In one assay the target is full-length human RORγt (Homo sapiens (Human), UniProt P51449). Put plainly: RORγt (full-length human) reporter assay, conditions A or B, HEK293T cells. Format: cell-based. The following applies: for inhibition at 2 µM: 2 μM compound concentration; for inhibition at 0.67 µM: 0.67 μM compound concentration (footnote ****). Put shortly:
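After 16–20 h, dual firefly/Renilla luciferase luminescence was read. Firefly signal was normalized to DMSO and saturating reference compound, then to Renilla, and fitted for IC50; % inhibition is versus DMSO.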

Assay [1] concerns the target human RORγt ligand binding domain (RORγt LBD) (Homo sapiens (Human), UniProt P51449). Put plainly: RORγt ThermoFluor® assay (thermal shift binding). Put shortly: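 Thermal shift with 0.065 mg/mL RORγt LBD and 60 μM 1,8-ANS in 100 mM Hepes pH 7.0, 10 mM NaCl, 2.5 mM GSH, 0.002% Tween-20.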
A general note: Differential scanning fluorimetry follows unfolding on heating by fluorescence.

[2] abbreviates: HEK-293T, read-out: RORγt (FL) Reporter Assay A or B, % inhibition.
Setting [3] is: RORγt (FL) Reporter Assay A or B, IC50, HEK293T cells.
Setting [4] is: read-out: ThermoFluor® Assay, Kd.
The mark [5] stands for this setting: HEK-293T, 0.22 μM compound concentration (footnote *******), read-out: RORγt (FL) Reporter Assay A or B, % inhibition.

full-length human RORγt, sequence (P51449 other isoform, or with tags, fused parts or gaps): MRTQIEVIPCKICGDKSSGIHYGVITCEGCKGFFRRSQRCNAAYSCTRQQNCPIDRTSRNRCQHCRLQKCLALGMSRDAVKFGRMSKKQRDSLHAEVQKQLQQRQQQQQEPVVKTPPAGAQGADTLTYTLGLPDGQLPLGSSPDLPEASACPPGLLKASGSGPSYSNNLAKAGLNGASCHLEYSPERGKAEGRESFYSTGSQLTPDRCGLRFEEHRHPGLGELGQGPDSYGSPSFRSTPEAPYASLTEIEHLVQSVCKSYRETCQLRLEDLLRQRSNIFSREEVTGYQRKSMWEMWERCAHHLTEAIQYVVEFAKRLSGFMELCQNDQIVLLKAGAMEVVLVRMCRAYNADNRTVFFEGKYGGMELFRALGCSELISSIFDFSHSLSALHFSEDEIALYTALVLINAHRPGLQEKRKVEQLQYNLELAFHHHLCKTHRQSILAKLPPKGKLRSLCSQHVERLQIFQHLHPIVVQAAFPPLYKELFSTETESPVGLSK
human RORγt ligand binding domain (RORγt LBD), sequence (P51449 other isoform, or with tags, fused parts or gaps): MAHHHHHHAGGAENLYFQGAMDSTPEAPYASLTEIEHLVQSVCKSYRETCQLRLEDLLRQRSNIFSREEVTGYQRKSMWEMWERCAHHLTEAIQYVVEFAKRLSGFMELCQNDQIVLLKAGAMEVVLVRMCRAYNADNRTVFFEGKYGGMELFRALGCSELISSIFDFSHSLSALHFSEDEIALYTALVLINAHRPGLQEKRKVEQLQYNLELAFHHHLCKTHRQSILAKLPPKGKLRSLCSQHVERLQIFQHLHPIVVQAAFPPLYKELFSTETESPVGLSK

`COc1cc(CC(C)C(F)(F)F)ccc1-c1c(Cl)c(C(=O)NC[C@H]2CC[C@H](S(C)(=O)=O)CC2)nn1CCO` (stereo partly drawn) [Example 200, 4-Chloro-1-(2-hydroxyethyl)-5-(2-methoxy-4-(3,3,3-trifluoro-2-methylpropyl)phenyl)-N-(((1r,4r)-4-(methylsulfonyl)cyclohexyl)methyl)-1H-pyrazole-3-carboxamide]: the inhibition at 2 µM on full-length human RORγt (setting [2]) came to 96%. The compound further returned an IC50 against full-length human RORγt (setting [3]) of 78 nM. The Kd in assay [1] (setting [4]) is 13 nM.

With `CCn1nc(C(=O)NC[C@]2(C#N)CC[C@@H](S(C)(=O)=O)CC2)c(Cl)c1-c1ccc(CC(C)(C)C(F)(F)F)cc1Cl` [Example 166, 4-Chloro-5-(2-chloro-4-(3,3,3-trifluoro-2,2-dimethylpropyl)phenyl)-N-(((1s*,4s*)-1-cyano-4-(methylsulfonyl)cyclohexyl)methyl)-1-ethyl-1H-pyrazole-3-carboxamide], the inhibition at 0.07 µM on full-length human RORγt (HEK-293T, 0.07 μM compound concentration (footnote *********), read-out: RORγt (FL) Reporter Assay A or B, % inhibition) came out at 88%. At full-length human RORγt (setting [3]), this compound gave an IC50 of 0.92 nM. Besides, the Kd in assay [1] (setting [4]) is 0.71 nM.

For `CCn1nc(C(=O)NC[C@H]2CC[C@H](S(C)(=O)=O)CC2)c(Cl)c1-c1ccc(N[C@H](C)C(F)(F)F)cc1` [Example 194, 4-Chloro-1-ethyl-N-(((1r,4R)-4-(methylsulfonyl)cyclohexyl)methyl)-5-(4-(((R)-1,1,1-trifluoropropan-2-yl)amino)phenyl)-1H-pyrazole-3-carboxamide], at full-length human RORγt (setting [2]), the inhibition at 2 µM was found to be 93%. For the same compound, the IC50 at full-length human RORγt (setting [3]) is 120 nM. The dissociation constant Kd in assay [1] (setting [4]) stood at 29 nM.

As to `CCOC(=O)[C@]1(CNC(=O)c2nn(CC)c(-c3ccc(CC(C)(C)C(F)(F)F)cc3OC(F)F)c2Cl)CC[C@@H](S(C)(=O)=O)CC1` [Example 120, Ethyl (1r*,4r*)-1-((4-chloro-5-(2-(difluoromethoxy)-4-(3,3,3-trifluoro-2,2-dimethylpropyl)phenyl)-1-ethyl-1H-pyrazole-3-carboxamido)methyl)-4-(methylsulfonyl)cyclohexane-1-carboxylate], on full-length human RORγt (setting [5]), the inhibition at […] turned out to be 92%. On full-length human RORγt (setting [3]), this compound registered an IC50 of 28 nM. In addition, the Kd in assay [1] (ThermoFluor® Assay, Kd) turned out to be 10 nM.

Take `CCn1nc(C(=O)NC[C@@]2(O)CC[C@@H](S(C)(=O)=O)C[C@@H]2O)c(Cl)c1-c1ccc(CC(C)(C)C(F)(F)F)cc1OC(F)F` (single isomer, unassigned) [Example 49, 4-Chloro-5-(2-(difluoromethoxy)-4-(3,3,3-trifluoro-2,2-dimethylpropyl)phenyl)-N-(((1S*,2S*,4R*)-1,2-dihydroxy-4-(methylsulfonyl)cyclohexyl)methyl)-1-ethyl-1H-pyrazole-3-carboxamide]: the inhibition at 2 µM on full-length human RORγt (setting [2]) is 96%. The 50% inhibitory concentration (IC50) at full-length human RORγt (setting [3]) amounted to 61 nM. In assay [1] (ThermoFluor® Assay, Kd), the Kd came to 26 nM.

`CCn1nc(C(=O)NC[C@@H]2CC[C@@H](S(C)(=O)=O)C[NH+]2CC(=O)ON)c(Cl)c1-c1ccc(CC(C)(C)C(F)(F)F)cc1OC(F)F` (stereo in doubt) [Example 63, N-(((2S*,5R*)-1-(2-(Aminooxy)-2-oxoethyl)-5-(methylsulfonyl)piperidin-2-yl)methyl)-4-chloro-5-(2-(difluoromethoxy)-4-(3,3,3-trifluoro-2,2-dimethylpropyl)phenyl)-1-ethyl-1H-pyrazole-3-carboxamide Trifluoroacetic Acid Salt]: the inhibition at 3 µM at full-length human RORγt (HEK-293T, 3 μM compound concentration (footnote *), read-out: RORγt (FL) Reporter Assay A or B, % inhibition) is 109%. Moreover, half-maximal inhibition on full-length human RORγt (setting [3]) (IC50) was put at 8 nM. Further, the Kd in assay [1] (ThermoFluor® Assay, Kd) amounted to 1 nM.

Take `CCn1nc(C(=O)NC[C@H]2CC[C@H](S(C)(=O)=O)CC2)c(Cl)c1-c1ccc(CC(C(F)(F)F)C(F)(F)F)cc1OC(F)F` [Example 86, 4-Chloro-5-(2-(difluoromethoxy)-4-(3,3,3-trifluoro-2-(trifluoromethyl)propyl)phenyl)-1-ethyl-N-(((1r,4r)-4-(methylsulfonyl)cyclohexyl)methyl)-1H-pyrazole-3-carboxamide]: at full-length human RORγt (setting [2]), the inhibition at 0.67 µM is 103%. The compound also yielded a concentration for half-maximal inhibition (IC50) against full-length human RORγt (setting [3]) of 5.6 nM. In assay [1] (setting [4]), the Kd came out at 0.17 nM.

For `CCn1nc(C(=O)NC[C@H]2CC[C@H](S(C)(=O)=O)CC2)c(Cl)c1-c1ccc(N[C@H](C)C(F)(F)F)cc1Cl` [Example 176, 4-Chloro-5-(2-chloro-4-(((R)-1,1,1-trifluoropropan-2-yl)amino)phenyl)-1-ethyl-N-(((1r,4R)-4-(methylsulfonyl)cyclohexyl)methyl)-1H-pyrazole-3-carboxamide], on full-length human RORγt (setting [2]), the inhibition at 0.67 µM was 102%. Besides, inhibition on full-length human RORγt (setting [3]) was half-maximal at 18 nM (IC50). Further, the Kd in assay [1] (setting [4]) came out at 3.8 nM.

On to `CCn1nc(C(=O)NC[C@]2(O)CC[C@@H](S(C)(=O)=O)CC2)c(Cl)c1-c1ccc(C[C@H](C)C(F)(F)F)cc1OC(F)F` (single isomer, unassigned) [Example 56, 4-Chloro-5-(2-(difluoromethoxy)-4-((S*)-3,3,3-trifluoro-2-methylpropyl)phenyl)-1-ethyl-N-(((1s,4R)-1-hydroxy-4-(methylsulfonyl)cyclohexyl)methyl)-1H-pyrazole-3-carboxamide], for which, on full-length human RORγt (HEK-293T, 0.11 μM compound concentration (footnote ********), read-out: RORγt (FL) Reporter Assay A or B, % inhibition), the inhibition at […] turned out to be 94%. Also, at full-length human RORγt (setting [3]), the IC50 turned out to be 8.7 nM. The equilibrium dissociation constant (Kd) in assay [1] (ThermoFluor® Assay, Kd) is 1 nM.

Regarding `CCn1nc(C(=O)NC[C@@]2(O)CC[C@H](S(C)(=O)=O)C[C@@H]2O)c(Cl)c1-c1ccc(CC(C)(C)C(F)(F)F)cc1OC(F)F` (single isomer, unassigned) [Example 47, 4-Chloro-5-(2-(difluoromethoxy)-4-(3,3,3-trifluoro-2,2-dimethylpropyl)phenyl)-N-(((1S*,2S*,4S*)-1,2-dihydroxy-4-(methylsulfonyl)cyclohexyl)methyl)-1-ethyl-1H-pyrazole-3-carboxamide], the inhibition at 2 µM on full-length human RORγt (setting [2]) came to 103%. The IC50 on full-length human RORγt (setting [3]) turned out to be 1.7 nM. Besides, the Kd in assay [1] (ThermoFluor® Assay, Kd) amounted to 0.37 nM.

Turning to `COCCn1nc(C(=O)NC[C@]2(O)CC[C@@H](S(C)(=O)=O)CC2)c(Cl)c1-c1ccc(CC(C)(C)C(F)(F)F)cc1OC(F)F` [Example 149, 4-Chloro-5-(2-(difluoromethoxy)-4-(3,3,3-trifluoro-2,2-dimethylpropyl)phenyl)-N-(((1s,4s)-1-hydroxy-4-(methylsulfonyl)cyclohexyl)methyl)-1-(2-methoxyethyl)-1H-pyrazole-3-carboxamide], the inhibition at 2 µM at full-length human RORγt (setting [2]) was 99%. At full-length human RORγt (setting [3]), this compound displayed an IC50 of 6 nM. Besides, the Kd in assay [1] (setting [4]) is 0.83 nM.

For `CCn1nc(C(=O)NC[C@]2(O)CC[C@@H](S(C)(=O)=O)CC2)c(Cl)c1-c1ccc(CC(C)(C)C(F)(F)F)cc1C(F)(F)F` [Example 163, 4-Chloro-1-ethyl-N-(((1s,4s)-1-hydroxy-4-(methylsulfonyl)cyclohexyl)methyl)-5-(4-(3,3,3-trifluoro-2,2-dimethylpropyl)-2-(trifluoromethyl)phenyl)-1H-pyrazole-3-carboxamide], the inhibition at […] on full-length human RORγt (setting [5]) turned out to be 78%. In addition, on full-length human RORγt (setting [3]), inhibition was half-maximal at 3.3 nM (IC50). Moreover, the Kd in assay [1] (setting [4]) turned out to be 0.63 nM.

With `CCn1nc(C(=O)NC[C@H]2CC[C@H](S(=O)(=O)NC(=O)NC)CC2)c(Cl)c1-c1ccc(CC(C)(C)C(F)(F)F)cc1OC(F)F` [Example 71, 4-Chloro-5-(2-(difluoromethoxy)-4-(3,3,3-trifluoro-2,2-dimethylpropyl)phenyl)-1-ethyl-N-(((1r,4r)-4-(N-(methylcarbamoyl)sulfamoyl)cyclohexyl)methyl)-1H-pyrazole-3-carboxamide], the “RORγt (FL) Reporter Assay A or B, % inhibition” value at full-length human RORγt (3 μM compound concentration (footnote *)) is 114* %. Further, the IC50 at full-length human RORγt (HEK293T cells, read-out: RORγt (FL) Reporter Assay A or B, IC50) is 13 nM. Further, the Kd in assay [1] (setting [4]) was 0.23 nM.

For the compound `CCn1nc(C(=O)NC[C@H]2CC[C@H](S(C)(=O)=O)CC2)c(Cl)c1-c1ccc(CC(C)C)cc1OC` [Example 72, 4-Chloro-1-ethyl-5-(4-isobutyl-2-methoxyphenyl)-N-(((1r,4r)-4-(methylsulfonyl)cyclohexyl)methyl)-1H-pyrazole-3-carboxamide], the inhibition at 2 µM on full-length human RORγt (setting [2]) came to 67%. Moreover, the IC50 against full-length human RORγt (setting [3]) came out at 10 nM. Moreover, the Kd in assay [1] (setting [4]) stood at 0.29 nM.

Consider `CCn1nc(C(=O)NC[C@H]2CC[C@H](S(C)(=O)=O)CC2)c(Cl)c1-c1ccc(CC(C)(C)CC(F)(F)F)cc1OC(F)F` [Example 89, 4-Chloro-5-(2-(difluoromethoxy)-4-(4,4,4-trifluoro-2,2-dimethylbutyl)phenyl)-1-ethyl-N-(((1r,4r)-4-(methylsulfonyl)cyclohexyl)methyl)-1H-pyrazole-3-carboxamide], for which, at full-length human RORγt (HEK-293T, 0.33 μM compound concentration (footnote *****), read-out: RORγt (FL) Reporter Assay A or B, % inhibition), the inhibition at […] stood at 98%. Besides, on full-length human RORγt (setting [3]), the IC50 was found to be 5.4 nM. Moreover, in assay [1] (setting [4]), the Kd is 0.24 nM.

For `CCn1nc(C(=O)NC[C@]2(C(=O)O)CC[C@@H](S(C)(=O)=O)CC2)c(Cl)c1-c1ccc(CC(C)(C)C(F)(F)F)cc1OC(F)F` [Example 119, (1s*,4s*)-1-((4-Chloro-5-(2-(difluoromethoxy)-4-(3,3,3-trifluoro-2,2-dimethylpropyl)phenyl)-1-ethyl-1H-pyrazole-3-carboxamido)methyl)-4-(methylsulfonyl)cyclohexane-1-carboxylic Acid], the inhibition at 6 µM on full-length human RORγt (HEK-293T, read-out: RORγt (FL) Reporter Assay A or B, % inhibition @ 6 μM, 6 μM compound concentration) was found to be 14%. Further, the IC50 against full-length human RORγt (setting [3]) is > 6000 nM. Also, the Kd in assay [1] (ThermoFluor® Assay, Kd) amounted to 1500 nM.
